Results as given in the NIST ThermoML archive (doi:10.1016/j.jct.2010.04.003).

Assay: xn = mol fraction of the nth substance listed
Conditions: 101 kPa, Liquid, Buoyancy - hydrostatic balance with magnetic suspension - one sinker

CN(C)P(=O)(N(C)C)N(C)C [tris(dimethylamino)phosphine oxide] + O
mass density [kg/m3]
Conditions	288.15 K	293.15 K	298.15 K	303.15 K	308.15 K
x1 = 0.0023	1001.1	1000.05	998.77	997.25	995.51
x1 = 0.00503	1003.51	1002.29	1000.85	999.27	997.34
x1 = 0.0101	1007.82	1006.2	1004.52	1002.76	1000.79
x1 = 0.0297	1024.31	1021.59	1018.84	1016.02	1013.39
x1 = 0.05	1036.43	1033.08	1029.72	1026.56	1023.13
x1 = 0.07	1043.92	1040.44	1036.96	1033.47	1029.7
x1 = 0.1	1050.24	1046.86	1042.73	1039	1034.91
x1 = 0.1496	1054.84	1050.62	1046.2	1041.95	1037.57
x1 = 0.1999	1054.7	1050.33	1045.83	1041.49	1037.05
x1 = 0.3008	1049.56	1045	1040.47	1036.04	1031.66
x1 = 0.3999	1044.61	1040.34	1035.76	1031.36	1026.94
x1 = 0.5002	1040.86	1036.54	1032.12	1027.81	1023.35
x1 = 0.6	1038.03	1033.74	1029.39	1025.15	1020.66
x1 = 0.6997	1035.45	1031.15	1026.79	1022.51	1018
x1 = 0.8004	1033.06	1028.72	1024.37	1020.03	1015.57
x1 = 0.8505	1031.95	1027.66	1023.31	1019.05	1014.64
x1 = 0.91	1030.54	1026.29	1021.95	1017.74	1013.41
x1 = 0.9499	1029.63	1025.4	1021.07	1016.88	1012.59
x1 = 0.9703	1029.16	1024.92	1020.61	1016.44	1012.14
x1 = 0.9849	1028.81	1024.6	1020.3	1016.12	1011.86
x1 = 0.9937	1028.61	1024.4	1020.1	1015.93	1011.68
x1 = 0.9967	1028.54	1024.33	1020.03	1015.86	1011.61
x1 = 1	1028.47	1024.26	1019.96	1015.79	1011.54
